Measurements taken from patent publication US11717500B2, “Treatment of spondyloarthritis” (PHARMACYL AB, priority 2020, dated 2023).
pIC50: −log10 of the molar value. Where a name gives a salt, the structure may show the parent alone. Read-outs that look alike come from different tables or passages of the source.

Columns and labels:
[1] = tested on: LPS-induced TNF-α production in RAW264.7 murine macrophage cells; experiment: Suppression of LPS-induced TNF-α production in RAW264.7 macrophages (ELISA); assay type: cell-based; conditions: Mus musculus
Source text: Macrophages serve a critical role in the initiation and propagation of inflammatory responses by releasing proinflammatory mediators, such as TNF-α. Lipopolysaccharide (LPS) is a potent initiator of an inflammatory response. During LPS stimulation, NF-κB signaling is activated to regulate the transcription of numerous genes involved in immunity and inflammation to produce proinflammatory cytokines, such as TNF-α. Suppression of LPS-induced TNF-α production in RAW264.7 macrophages treated with AABZ was investigated by evaluation of the generation of TNF-α.
The RAW264.7 macrophage line was maintained in DMEM supplemented with 5% FBS at 37° C. in a 5% CO2-humidified air environment. The RAW264.7 cells were seeded in 96-well plates at a density of 1×10^5/ml and a volume of 200 μl/well. The cells were incubated for 24 h in medium supplemented with 10% FBS and were then pre-incubated with or without the indicated concentrations of test substances for 2 h prior to the addition of LPS (1 μg/ml). The supernatants were subsequently harvested at various time points and production of the proinflammatory cytokine TNF-α in the culture medium was determined using a commercially available enzyme-linked immunosorbent assay (ELISA) kit according to the manufacturer's protocol.
Effects of some AABZs of the invention at 1 mM on LPS-induced TNF-production in RAW264.7 murine macrophage cells are shown in Table 2.

[2] = tested on: AP-1; conditions: T cells; cited from earlier work
[3] = tested on: NF-κB; conditions: T cells; cited from earlier work
[4] = tested on: NFAT; conditions: T cells; cited from earlier work
[5] = tested on: IκBβ; conditions: cited from earlier work
[6] = target: dopamine D2 receptor (Homo sapiens (Human), UniProt P14416); experiment: Dopamine D2 receptor affinity, in vitro radioligand binding with 125I-spiperone; conditions: 125I-spiperone as radioactive ligand
dopamine D2 receptor, sequence (P14416 whole entry, species assumed): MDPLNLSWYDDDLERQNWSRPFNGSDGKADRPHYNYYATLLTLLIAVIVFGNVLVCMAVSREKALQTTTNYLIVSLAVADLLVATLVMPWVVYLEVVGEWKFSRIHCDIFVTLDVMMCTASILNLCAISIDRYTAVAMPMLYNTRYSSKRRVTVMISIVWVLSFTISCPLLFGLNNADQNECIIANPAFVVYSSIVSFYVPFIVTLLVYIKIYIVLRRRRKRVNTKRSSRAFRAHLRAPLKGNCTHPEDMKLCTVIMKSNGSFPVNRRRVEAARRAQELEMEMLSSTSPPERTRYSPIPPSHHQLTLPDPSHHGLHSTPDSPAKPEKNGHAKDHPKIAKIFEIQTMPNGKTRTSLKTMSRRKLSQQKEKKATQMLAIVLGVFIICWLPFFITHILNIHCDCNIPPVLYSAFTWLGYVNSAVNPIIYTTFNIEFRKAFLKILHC
Source text: It is well-known that drug compounds that have an affinity for the striatal dopamine D2 may give rise to adverse side effects, such as short-term extrapyramidal disorders and tardive dyskinesia.

[7] = RAW264.7, read-out: % Inhibition of TNF-production

| Structure (SMILES) | inhibition at 1000 µM [1, 7] [%] | pIC50 [6] | further results |
| --- | --- | --- | --- |
| CCN(CC)CCNC(=O)c1ccc(NC(C)=O)cc1 [4-Acetamido-N-[2-(diethylamino)ethyl]benzamide hydrochloride] |  |  | inhibition at 1000 µM ([1]; 1 mM, LPS 1 μg/ml, RAW264.7 murine macrophage cells, read-out: % Inhibition of TNF-production): 56% |
| CCN(CC)CCNC(=O)c1ccc(NC(=O)C(C)C)c(Cl)c1 [4-Isobutyrylamino-3-chloro-N-[2-(diethylamino)ethyl]benzamide hydrochloride] | 63 |  |  |
| CCC(=O)Nc1ccc(C(=O)NCCN(CC)CC)cc1Cl [4-Propanoylamino-3-chloro-N-[2-(diethylamino)ethyl]benzamide hydrochloride] | 50 |  |  |
| CCN(CC)CCNC(=O)c1ccc(NC(C)=O)c(Cl)c1 [Cpd A, 4-Acetamido-3-chloro-N-[2-(diethylamino)ethyl]benzamide hydrochloride] | 45 | 3.01 | effect on AP-1 activity [2]: induce AP-1 activity; effect on NF-κB activity [3]: inhibit activities; effect on NFAT activity [4]: inhibit activities; effect on breakdown of IκBβ [5]: inhibit breakdown |
| CCN(CC)CCNC(=O)c1ccc(N)c(Cl)c1 [Declopramide, declopramide] |  | 4.41 |  |
